Measured values reported in US12564638B2 (SHANGHAITECH UNIVERSITY, priority 2019, dated 2026).
Like-named read-outs stand apart in the source and are kept apart here.

Tests used:
[1] = system: HCC827 cells (EGFR Exon19 del, non-small cell lung cancer cells); assay: Cell viability assay (WST/CCK8), HCC827 cells; format: cell-based; settings: Homo sapiens, HCC827, 72 h, HCC827 (Exon19 Del), 72 hours, read-out: IC50 (half inhibitory concentration)
How it was run: (§1)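 Cells seeded at 3 000/well in RPMI1640 complete medium, dosed next day with compounds (top 10 μM, 3-fold, 10 points) for 72 h. Viability read with WST (CCK8) reagent; DMSO as negative control, EGFR TKIs as positive controls; IC50 determined.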

[2] = system: PC9 cells (EGFR Exon 19 del, non-small cell lung cancer cells); assay: Cell viability assay (WST/CCK8), PC9 cells; format: cell-based; settings: Homo sapiens, PC-9, PC9 (Exon19 Del), 72 hours, read-out: IC50 (half inhibitory concentration)
How it was run: as §1

[3] = Table 6, canertinib-based compounds, WST

IC50 ([1]; WST (CCK8)) [µM] | IC50 ([2]; WST (CCK8)) [µM] | IC50 [1, 3] [µM] | IC50 [2, 3] [µM] | SMILES
0.0261 | 0.078 | – | – | COc1cc2ncnc(Nc3ccc(F)c(Cl)c3)c2cc1NC(=O)/C=C/CN1CCN(C(=O)COCCOCCOCCSc2cccc3c2CN(C2CCC(=O)NC2=O)C3=O)CC1 (stereo not drawn) [SIAIS262002, (E)-N-(4-((3-chloro-4-fluorophenyl)amino)-7-methoxyquinazolin-6-yl)-4-(4-(2-(2-(2-(2-((2-(2,6-dioxopiperidin-3-yl)-1-oxoisoindolin-4-yl)thio)ethoxy)ethoxy)ethoxy)acetyl)piperazin-1-yl)but-2-enamide]
0.0072 | 0.015 | – | – | COc1cc2ncnc(Nc3ccc(F)c(Cl)c3)c2cc1NC(=O)/C=C/CN1CCN(C(=O)COCCOCCOCCOCCOCCSc2cccc3c2CN(C2CCC(=O)NC2=O)C3=O)CC1 (stereo not drawn) [SIAIS262004, (E)-N-(4-((3-chloro-4-fluorophenyl)amino)-7-methoxyquinazolin-6-yl)-4-(4-(17-((2-(2,6-dioxopiperidin-3-yl)-1-oxoisoindolin-4-yl)thio)-3,6,9,12,15-pentaoxaheptadecan-1-oyl)piperazin-1-yl)but-2-enamide]
0.0669 | 0.084 | – | – | COc1cc2ncnc(Nc3ccc(F)c(Cl)c3)c2cc1NC(=O)/C=C/CN1CCN(C(=O)COCCOCCSc2cccc3c2C(=O)N(C2CCC(=O)NC2=O)C3=O)CC1 (stereo not drawn) [SIAIS262005, (E)-N-(4-((3-chloro-4-fluorophenyl)amino)-7-methoxyquinazolin-6-yl)-4-(4-(2-(2-(2-((2-(2,6-dioxopiperidin-3-yl)-1,3-dioxoisoindolin-4-yl)thio)ethoxy)ethoxy)acetyl)piperazin-1-yl)but-2-enamide]
0.0355 | 0.073 | – | – | COc1cc2ncnc(Nc3ccc(F)c(Cl)c3)c2cc1NC(=O)/C=C/CN1CCN(C(=O)COCCOCCOCCSc2cccc3c2C(=O)N(C2CCC(=O)NC2=O)C3=O)CC1 (stereo not drawn) [SIAIS262006, (E)-N-(4-((3-chloro-4-fluorophenyl)amino)-7-methoxyquinazolin-6-yl)-4-(4-(2-(2-(2-(2-((2-(2,6-dioxopiperidin-3-yl)-1,3-dioxoisoindolin-4-yl)thio)ethoxy)ethoxy)ethoxy)acetyl)piperazin-1-yl)but-2-enamide]
0.026 | 0.084 | – | – | COc1cc2ncnc(Nc3ccc(F)c(Cl)c3)c2cc1NC(=O)/C=C/CN1CCN(C(=O)COCCOCCOCCOCCSc2cccc3c2C(=O)N(C2CCC(=O)NC2=O)C3=O)CC1 (stereo not drawn) [SIAIS262007, (E)-N-(4-((3-chloro-4-fluorophenyl)amino)-7-methoxyquinazolin-6-yl)-4-(4-(14-((2-(2,6-dioxopiperidin-3-yl)-1,3-dioxoisoindolin-4-yl)thio)-3,6,9,12-tetraoxatetradecanoyl)piperazin-1-yl)but-2-enamide]
0.0358 | 0.028 | – | – | COc1cc2ncnc(Nc3ccc(F)c(Cl)c3)c2cc1NC(=O)/C=C/CN1CCN(C(=O)CCOCCOCCNc2cccc3c2C(=O)N(C2CCC(=O)NC2=O)C3=O)CC1 (stereo not drawn) [SIAIS262013, (E)-N-(4-((3-chloro-4-fluorophenyl)amino)-7-methoxyquinazolin-6-yl)-4-(4-(3-(2-(2-((2-(2,6-dioxopiperidin-3-yl)-1,3-dioxoisoindolin-4-yl)amino)ethoxy)ethoxy)propanoyl)piperazin-1-yl)but-2-enamide]
0.0395 | 0.128 | – | – | COc1cc2ncnc(Nc3ccc(F)c(Cl)c3)c2cc1NC(=O)/C=C/CN1CCN(C(=O)CCOCCOCCOCCOCCNc2cccc3c2C(=O)N(C2CCC(=O)NC2=O)C3=O)CC1 (stereo not drawn) [SIAIS262014, (E)-N-(4-((3-chloro-4-fluorophenyl)amino)-7-methoxyquinazolin-6-yl)-4-(4-(1-((2-(2,6-dioxopiperidin-3-yl)-1,3-dioxoisoindolin-4-yl)amino)-3,6,9,12-tetraoxapentadecan-15-oyl)piperazin-1-yl)but-2-enamide]
0.003 | 0.012 | – | – | COc1cc2ncnc(Nc3ccc(F)c(Cl)c3)c2cc1NC(=O)/C=C/CN1CCN(C(=O)CCCCCCNc2cccc3c2C(=O)N(C2CCC(=O)NC2=O)C3=O)CC1 (stereo not drawn) [SIAIS262015, (E)-N-(4-((3-chloro-4-fluorophenyl)amino)-7-methoxyquinazolin-6-yl)-4-(4-(7-((2-(2,6-dioxopiperidin-3-yl)-1,3-dioxoisoindolin-4-yl)amino)heptanoyl)piperazin-1-yl)but-2-enamide]
0.0045 | 0.112 | – | – | COc1cc2ncnc(Nc3ccc(F)c(Cl)c3)c2cc1NC(=O)/C=C/CN1CCN(C(=O)CCNc2cccc3c2C(=O)N(C2CCC(=O)NC2=O)C3=O)CC1 (stereo not drawn) [SIAIS262016, (E)-N-(4-((3-chloro-4-fluorophenyl)amino)-7-methoxyquinazolin-6-yl)-4-(4-(3-((2-(2,6-dioxopiperidin-3-yl)-1,3-dioxoisoindolin-4-yl)amino)propanoyl)piperazin-1-yl)but-2-enamide]
0.0008 | 0.0099 | – | – | COc1cc2ncnc(Nc3ccc(F)c(Cl)c3)c2cc1NC(=O)/C=C/CN1CCC(N2CCN(CCCC#Cc3cccc4c3CN(C3CCC(=O)NC3=O)C4=O)CC2)CC1 (stereo not drawn) [SIAIS262050, (E)-N-(4-((3-chloro-4-fluorophenyl)amino)-7-methoxyquinazolin-6-yl)-4-(4-(4-(5-(2-(2,6-dioxopiperidin-3-yl)-1-oxoisoindolin-4-yl)pent-4-yn-1-yl)piperazin-1-yl)piperidin-1-yl)but-2-enamide]
0.0025 | 0.0025 | – | – | COc1cc2ncnc(Nc3ccc(F)c(Cl)c3)c2cc1NC(=O)/C=C/CN1CCC(N2CCN(CCCCC#Cc3cccc4c3CN(C3CCC(=O)NC3=O)C4=O)CC2)CC1 (stereo not drawn) [SIAIS262051, (E)-N-(4-((3-chloro-4-fluorophenyl)amino)-7-methoxyquinazolin-6-yl)-4-(4-(4-(6-(2-(2,6-dioxopiperidin-3-yl)-1-oxoisoindolin-4-yl)hex-5-yn-1-yl)piperazin-1-yl)piperidin-1-yl)but-2-enamide]
0.0014 | 0.0013 | – | – | COc1cc2ncnc(Nc3ccc(F)c(Cl)c3)c2cc1NC(=O)/C=C/CN1CCC(N2CCN(C(=O)CCc3cccc4c3CN(C3CCC(=O)NC3=O)C4=O)CC2)CC1 (stereo not drawn) [SIAIS262052, (E)-N-(4-((3-chloro-4-fluorophenyl)amino)-7-methoxyquinazolin-6-yl)-4-(4-(4-(3-(2-(2,6-dioxopiperidin-3-yl)-1-oxoisoindolin-4-yl)propanoyl)piperazin-1-yl)piperidin-1-yl)but-2-enamide]
0.0031 | 0.185 | – | – | COc1cc2ncnc(Nc3ccc(F)c(Cl)c3)c2cc1NC(=O)/C=C/CN1CCC(N2CCN(CCCCCCSc3cccc4c3CN(C3CCC(=O)NC3=O)C4=O)CC2)CC1 (stereo not drawn) [SIAIS262065, (E)-N-(4-((3-chloro-4-fluorophenyl)amino)-7-methoxyquinazolin-6-yl)-4-(4-(4-(6-((2-(2,6-dioxopiperidin-3-yl)-1-oxoisoindolin-4-yl)thio)hexyl)piperazin-1-yl)piperidin-1-yl)but-2-enamide]
0.02 | 0.073 | – | – | COc1cc2ncnc(Nc3ccc(F)c(Cl)c3)c2cc1NC(=O)/C=C/CN1CCC(NC(=O)CSc2cccc3c2CN(C2CCC(=O)NC2=O)C3=O)CC1 (stereo not drawn) [SIAIS262110, (E)-N-(4-((3-chloro-4-fluorophenyl)amino)-7-methoxyquinazolin-6-yl)-4-(4-(2-((2-(2,6-dioxopiperidin-3-yl)-1-oxoisoindolin-4-yl)thio)acetamido)piperidin-1-yl)but-2-enamide]
0.014 | 0.0425 | – | – | COc1cc2ncnc(Nc3ccc(F)c(Cl)c3)c2cc1NC(=O)/C=C/CN1CCC(NC(=O)CCCSc2cccc3c2CN(C2CCC(=O)NC2=O)C3=O)CC1 (stereo not drawn) [SIAIS262112, (E)-N-(4-((3-chloro-4-fluorophenyl)amino)-7-methoxyquinazolin-6-yl)-4-(4-(4-((2-(2,6-dioxopiperidin-3-yl)-1-oxoisoindolin-4-yl)thio)butanamido)piperidin-1-yl)but-2-enamide]
– | – | 0.0472 | 0.179 | C=CC(=O)Nc1cc2c(Nc3ccc(F)c(Cl)c3)ncnc2cc1OCCCN1CCN(C(=O)CCOCCOCCOCCOCCC(=O)N[C@H](C(=O)N2C[C@H](O)C[C@H]2C(=O)NCc2ccc(-c3scnc3C)cc2)C(C)(C)C)CC1 [SIAIS262130, (2S,4R)-1-((S)-19-(4-(3-((6-acrylamido-4-((3-chloro-4-fluorophenyl)amino)quinazolin-7-yl)oxy)propyl)piperazin-1-yl)-2-(tert-butyl)-4,19-dioxo-7,10,13,16-tetraoxa-3-azanonadecanoyl)-4-hydroxy-N-(4-(4-methylthiazol-5-yl)benzyl)pyrrolidine-2-carboxamide]
0.0013 | 0.074 | – | – | COc1cc2ncnc(Nc3ccc(F)c(Cl)c3)c2cc1NC(=O)/C=C/CN1CCC(N2CCN(Cc3ccc(CSc4cccc5c4CN(C4CCC(=O)NC4=O)C5=O)cc3)CC2)CC1 (stereo not drawn) [SIAIS337021, (E)-N-(4-((3-chloro-4-fluorophenyl)amino)-7-methoxyquinazolin-6-yl)-4-(4-(4-(4-(((2-(2,6-dioxopiperidin-3-yl)-1-oxoisoindolin-4-yl)thio)methyl)benzyl)piperazin-1-yl)piperidin-1-yl)but-2-enamide]
0.0056 | 0.036 | – | – | COc1cc2ncnc(Nc3ccc(F)c(Cl)c3)c2cc1NC(=O)/C=C/CN1CCC(N2CCN(C(=O)COc3cccc4c3CN(C3CCC(=O)NC3=O)C4=O)CC2)CC1 (stereo not drawn) [SIAIS337025, (E)-N-(4-((3-chloro-4-fluorophenyl)amino)-7-methoxyquinazolin-6-yl)-4-(4-(4-(2-((2-(2,6-dioxopiperidin-3-yl)-1-oxoisoindolin-4-yl)oxy)acetyl)piperazin-1-yl)piperidin-1-yl)but-2-enamide]
